Measured values reported in US9518000B2, “Bicyclo [2.2.1] acid GPR120 modulators” (BRISTOL-MYERS SQUIBB COMPANY, priority 2013, dated 2016).

Biological target: human GPR120 (Homo sapiens (Human), UniProt Q5NUL3)
Assay: GPR120 pERK AlphaScreen SureFire Assay (human GPR120 pERK assay)
Format: cell-based
Settings: CHOA12 or CHO-K1 cells stably transfected with the short form of human GPR120 receptor; phosphorylated ERK; read-out: EC50 values measured in the human GPR120 pERK assay
From the text: GPR120 activity was monitored by measuring phosphorylation of ERK (pERK), since G protein receptors are known to activate the ERK signaling cascade either directly and/or through recruitment of arrestin that serves as a scaffold for downstream signaling events.
GPR120 pERK AlphaScreen SureFire Assay
The human and mouse GPR120-mediated intracellular phosphorylated ERK assays were established using CHOA12 cells stably transfected with the short form of human or mouse GPR120 receptor. Cells were cultured in growth medium consisting of F-12 media (Invitrogen Cat. #11765) with 5% Charcoal/Dextran FBS (Invitrogen Cat. #12676-029), 500 μg/mL GENETICIN® (Life Technologies Cat. #10131-027) and 250 μg/mL Zeocin (Invitrogen Cat. #R250-01). Cells were cryo preserved at a concentration of 2×10^7 cells/mL, in 90% Charcoal/Dextran FBS and 10% DMSO, and frozen in liquid nitrogen at a low passage number.
For the pERK assay, 2×10^7 cells/mL cryopreserved human and mouse cells were thawed rapidly in a 37° C. water bath and added to a T-225 flask containing 50 mL growth medium. The flasks were placed in a tissue culture incubator overnight (37° C., 5% CO2). The next day, cells were harvested with trypsin (Gibco Cat. #25300-054), resuspended in serum-containing growth medium and counted using a Cellometer and volume adjusted to a concentration of 0.6×10^6 cells/mL. Cells were plated into 384-well clear bottom tissue culture plates (BD Cat. #353962) at 50 μL/well, for a density of 30,000 cells/well using a MULTIDROP® and incubated for 16-18 hours (overnight) at 37° C. with 5% CO2. The next day, cells were serum starved in 30 μL of F-12 media without any serum or antibiotics for 2 hours at 37° C.
Test compounds were 3-fold, 11-point serially diluted in DMSO in a REMP assay plate (Matrix Cat. #4307) by Tecan and 5 μL was transferred into an ECHO source plate (LabCyte Cat. #LC-0200). Cells were then stimulated with 50 nL of compound dilutions using ECHO liquid handler for 7 minutes at 37° C. Compounds ranged from final assay concentrations of 33.33 μM to 0.56 nM.
The media was then dumped and cells lysed with 20 μL of 1× Lysis buffer from the AlphaScreen SureFire Phospho-ERK 1/2 Kit (Perkin Elmer Cat. #6760617M). The lysis buffer was diluted 5-fold with water before use. The plate was agitated on a shaker for 10 minutes after which 2 μL was transferred into a 384-well white proxiplate (Perkin Elmer Cat. #6008289). The SureFire assay reagent mix was prepared by mixing 60 parts Reaction Buffer, 10 parts Activation Buffer, 1 part Donor Beads, 1 part Acceptor Beads (Perkin Elmer Cat. #TGRES10K). 3.5 μL/well of this reagent mix was manually added to the proxiplate with a multichannel pipettor. Plates were spun down at 1000 rpm for 2 minutes, followed by light-protected incubation at room temperature for 2 hours. The plates were read on the Alpha-technology compatible Envision multilabel plate reader using AlphaScreen protocol according to manufacturer's specifications. The agonist effect of compounds was expressed as 100×(average sample-average blank)/(average total−average blank) where sample is the luminescence activity in the presence of test compound, blank is equal to the luminescence activity in the presence of DMSO control and the total is signal induced by 50 μM linolenic acid as reference compound. Activation data for the test compound over a range of concentrations was plotted as percentage activation of the test compound (100%=maximum response). After correcting for background, EC50 values were determined. The EC50 is defined as the concentration of test compound which produces 50% of the maximal response and was quantified using the 4 parameter logistic equation to fit the data.
The human and mouse GPR120-mediated intracellular phosphorylated ERK assays were also established using CHO-K1 cells stably transfected with the short form of human or mouse GPR120 receptor. […]

human GPR120, sequence (Q5NUL3 whole entry): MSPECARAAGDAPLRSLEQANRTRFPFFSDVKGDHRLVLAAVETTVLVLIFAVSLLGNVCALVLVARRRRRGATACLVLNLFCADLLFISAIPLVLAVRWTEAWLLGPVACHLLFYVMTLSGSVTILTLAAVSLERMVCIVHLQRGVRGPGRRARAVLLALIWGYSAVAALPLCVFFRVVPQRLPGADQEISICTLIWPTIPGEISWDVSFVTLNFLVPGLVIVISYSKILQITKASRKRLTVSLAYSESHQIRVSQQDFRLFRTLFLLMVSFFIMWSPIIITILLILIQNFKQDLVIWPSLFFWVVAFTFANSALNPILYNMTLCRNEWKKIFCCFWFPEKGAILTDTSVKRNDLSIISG

Row | Compound | EC50 [nM]
1 | O=C(O)CCCC12CCC(OCc3cc(F)cc(OC(F)(F)F)c3)(CC1)C2 [Example 28, 4-(4-(3-fluoro-5-(trifluorometh-oxy)benzyloxy)bicyclo[2.2.1]heptan-1-yl) butanoic acid] | 390
2 | COc1ccc(OC(F)(F)F)cc1COC12CCC(CCCC(=O)O)(CC1)C2 [Example 29, 4-(4-(2-methoxy-5-(trifluorometh-oxy)benzyloxy)bicyclo[2.2.1]heptan-1-yl) butanoic acid] | 5070
3 | COc1cc(Cl)cc(COC23CCC(CCCC(=O)O)(CC2)C3)c1 [Example 31, 4-(4-(3-chloro-5-methoxybenzyl-oxy)bicyclo [2.2.1]heptan-1-yl)butanoic acid] | 900
4 | O=C(O)CCCC12CCC(OCc3cccc(Oc4ccc(Cl)cc4)c3)(CC1)C2 [Example 32, 4-(4-(3-(4-chlorophenoxy)benzyloxy)bicyclo [2.2.1]heptan-1-yl) butanoic acid] | 590
5 | CC(C)Oc1cc(F)cc(COC23CCC(CCCC(=O)O)(CC2)C3)c1 [Example 35, 4-(4-(3-fluoro-5-isopropoxybenzyl-oxy)bicyclo [2.2.1]heptan-1-yl)butanoic acid] | 440
6 | CC(C)Oc1ccccc1COC12CCC(CCCC(=O)O)(CC1)C2 [Example 36, 4-(4-(2-isopropoxy-benzyloxy)bicyclo [2.2.1]heptan-1-yl)butanoic acid] | 1550
7 | Cc1nc(-c2cccc(COC34CCC(CCCC(=O)O)(CC3)C4)c2)no1 [Example 37, 4-(4-(3-(5-methyl-1,2,4-oxadiazol-3-yl)benzyloxy)bicyclo[2.2.1]heptan-1-yl) butanoic acid] | 3120
8 | CC(C)Oc1cccc(COC23CCC(CCCC(=O)O)(CC2)C3)c1 [Example 38, 4-(4-(3-isopropoxy-benzyloxy)bicyclo [2.2.1]heptan-1-yl)butanoic acid] | 1680
9 | O=C(O)CCCC12CCC(OCc3cccc(C(=O)c4ccccc4)c3)(CC1)C2 [Example 39, 4-(4-(3-benzoyl-benzyloxy)bicyclo[2.2.1]heptan-1-yl) butanoic acid] | 820
10 | COc1cc(Cl)ccc1COC12CCC(CCCC(=O)O)(CC1)C2 [Example 40, 4-(4-(4-chloro-2-methoxybenzyl-oxy)bicyclo [2.2.1]heptan-1-yl)butanoic acid] | 2300
11 | COc1ccc(COC23CCC(CCCC(=O)O)(CC2)C3)c(OC(F)(F)F)c1 [Example 43, 4-(4-(4-methoxy-2-(trifluoromethoxy)benzyloxy)bicyclo[2.2.1]heptan-1-yl) butanoic acid] | 320
12 | O=C(O)CCCC12CCC(OCc3cc(F)ccc3OC(F)(F)F)(CC1)C2 [Example 44, 4-(4-(5-fluoro-2-(trifluorometh-oxy)benzyloxy)bicyclo[2.2.1]heptan-1-yl) butanoic acid] | 930
13 | O=C(O)CCCC12CCC(OCc3c(F)ccc(F)c3F)(CC1)C2 [Example 47, 4-(4-(2,3,6-trifluorobenzyl-oxy)bicyclo [2.2.1]heptan-1-yl)butanoic acid] | 7810
14 | O=C(O)CCCC12CCC(OCc3ccccc3-c3ccccc3)(CC1)C2 [Example 48, 4-(4-(biphenyl-2-ylmethoxy)bicyclo[2.2.1]heptan-1-yl) butanoic acid] | 320
15 | O=C(O)CCCC12CCC(OCc3cccc(SC(F)(F)F)c3)(CC1)C2 [Example 50, 4-(4-(3-(trifluoro-methylthio)benzyloxy)bicyclo[2.2.1]heptan-1-yl) butanoic acid] | 540
16 | O=C(O)CCCC12CCC(OCc3cc([N+](=O)[O-])ccc3Cl)(CC1)C2 [Example 51, 4-(4-(2-chloro-5-nitrobenzyloxy)bicyclo[2.2.1]heptan-1-yl) butanoic acid] | 2390
17 | O=C(O)CCCC12CCC(OCc3cccc(F)c3F)(CC1)C2 [Example 53, 4-(4-(2,3-difluorobenzyloxy)bicyclo[2.2.1]heptan-1-yl) butanoic acid] | 6120
18 | O=C(O)CCCC12CCC(OCc3ccsc3Br)(CC1)C2 [Example 54, 4-(4-((2-bromo-thiophen-3-yl)methoxy)bicyclo [2.2.1]heptan-1-yl)butanoic acid] | 1690
19 | O=C(O)CCCC12CCC(OCc3c(F)ccc(F)c3Cl)(CC1)C2 [Example 56, 4-(4-(2-chloro-3,6-difluorobenzyl-oxy)bicyclo [2.2.1]heptan-1-yl)butanoic acid] | 1880
20 | O=C(O)CCCC12CCC(OCc3cccc(-c4ccccc4)c3)(CC1)C2 [Example 57, 4-(4-(biphenyl-3-ylmethoxy)bicyclo[2.2.1]heptan-1-yl) butanoic acid] | 770

Further molecules by falling EC50, results first:

Row | EC50 [nM] | Compound
21 | 9100 | COc1ccc(COC23CCC(CCCC(=O)O)(CC2)C3)c(F)c1 [Example 42, 4-(4-(2-fluoro-4-methoxybenzyl-oxy)bicyclo[2.2.1]heptan-1-yl) butanoic acid]
22 | 4150 | COc1ccc(Br)cc1COC12CCC(CCCC(=O)O)(CC1)C2 [Example 60, 4-(4-(5-bromo-2-methoxybenzyl-oxy)bicyclo [2.2.1]heptan-1-yl)butanoic acid]
23 | 1720 | O=C(O)CCCC12CCC(OCc3ccc(Oc4ccccc4)cc3)(CC1)C2 [Example 58, 4-(4-(4-phenoxy-benzyloxy)bicyclo[2.2.1]heptan-1-yl) butanoic acid]
24 | 1100 | O=C(O)CCCC12CCC(OCc3ccc(Cl)cc3Cl)(CC1)C2 [Example 41, 4-(4-(2,4-dichlorobenzyloxy)bicyclo[2.2.1]heptan-1-yl) butanoic acid]
25 | 850 | O=C(O)CCCC12CCC(OCc3csc4ccc(Cl)cc34)(CC1)C2 [Example 30, 4-(4-((5-chlorobenzo[b]thiophen-3-yl)methoxy)bicyclo[2.2.1]heptan-1-yl) butanoic acid]
26 | 710 | O=C(O)CCCC12CCC(OCc3cccc(Cl)c3F)(CC1)C2 [Example 45, 4-(4-(3-chloro-2-fluorobenzyl-oxy)bicyclo [2.2.1]heptan-1-yl)butanoic acid]
27 | 690 | O=C(O)CCCC12CCC(OCc3cc(Cl)ccc3F)(CC1)C2 [Example 52, 4-(4-(5-chloro-2-fluorobenzyl-oxy)bicyclo [2.2.1]heptan-1-yl)butanoic acid]
28 | 660 | O=C(O)CCCC12CCC(OCc3ccccc3SC(F)(F)F)(CC1)C2 [Example 49, 4-(4-(2-(trifluoro-methylthio)benzyloxy)bicyclo [2.2.1]heptan-1-yl)butanoic acid]
29 | 610 | O=C(O)CCCC12CCC(OCc3c(Cl)ccc(Cl)c3Cl)(CC1)C2 [Example 59, 4-(4-(2,3,6-trichlorobenzyl-oxy)bicyclo [2.2.1]heptan-1-yl)butanoic acid]
30 | 400 | O=C(O)CCCC12CCC(OCc3cc(F)cc(Oc4ccccc4)c3)(CC1)C2 [Example 34, 4-(4-(3-fluoro-5-phenoxybenzyl-oxy)bicyclo [2.2.1]heptan-1-yl)butanoic acid]
31 | 290 | O=C(O)CCCC12CCC(OCc3cccc(C(F)(F)F)c3F)(CC1)C2 [Example 46, 4-(4-(2-fluoro-3-(trifluoromethyl)benzyloxy)bicyclo[2.2.1]heptan-1-yl) butanoic acid]
32 | 260 | O=C(O)CCCC12CCC(OCc3cc(OC(F)(F)F)ccc3F)(CC1)C2 [Example 33, 4-(4-(2-fluoro-5-(trifluorometh-oxy)benzyloxy)bicyclo[2.2.1]heptan-1-yl) butanoic acid]
33 | 170 | O=C(O)CCCC12CCC(OCc3cccc(C(F)(F)F)c3Cl)(CC1)C2 [Example 55, 4-(4-(2-chloro-3-(trifluoromethyl)benzyloxy) [2.2.1]heptan-1-yl)butanoic acid]
